pIC50: −log10 of the molar value. Values joined by “and” are separate entries in the source; they are usually repeats but may differ in a detail not shown here. Equal entries are not always repeated.

Data on 87 compounds can be found in PubChem BioAssay AID2305 (GlaxoSmithKline (GSK), 2010).

The test system of the test is P. falciparum 3D7 growth, pLDH absorbance. As to the kind of experiment: blood-stage malaria parasite growth potency – strain 3D7, dose response (AID 2305).
Compound `Cc1cccc2[nH]c(-c3cccc(-c4cccc(CNCc5cnn(-c6ccccc6)n5)c4)c3)nc12` showed a pIC50 of 6.18.
Then `Cc1cc(NN=Cc2ccccc2Cl)c2cc(F)ccc2n1`, with 6.12; and `Cc1ccc(C2CCN(CCCCNC(=O)c3ccc(-c4ccc(C(F)(F)F)cc4)cc3)CC2)c(O)c1`, with 6.89; and `Cc1ccnc2nc(C(=O)Nc3cc(C(F)(F)F)ccc3N3CCCCC3)nn12`, with 7.22.
Then `CC(=O)Nc1cccc(Nc2nccc(Nc3ccc(Oc4ccccc4)cc3)n2)c1`, with 6.12.
Then `Cc1cc(NN=Cc2cccc([N+](=O)[O-])c2)c2ccc(C(F)(F)F)cc2n1`, with 6.06.
As for `Cc1cc(C)cc(CC(=O)N2CCC(n3c(C)nc4ccc(C)cc43)CC2)c1`, the pIC50 was 6.28.
For `CC(=O)Oc1c(Cl)c(C)nc(C)c1-c1ccc(Oc2ccc(OC(F)(F)F)cc2)cc1` the value was 7.00; for `Cc1ccc(Nc2nc(C)cc(N3CCN(CCc4ccccc4)CC3)n2)cc1`, 6.01.
For `Cc1cc2c(NC(=O)NC3CCN(CCc4ccccc4Cl)CC3)cccc2cn1` the value was 6.41; for `COc1ccc(C(=O)Nc2ccc(Nc3nc(C)cc(N(C)C)n3)cc2)c(OC)c1`, 6.06; for `O=C(NCC1CCN(Cc2cccc(F)c2)C1)c1cc(-c2cccc(C(F)(F)F)c2)cs1` (configuration not stated), 6.00.
Then `Cc1ccccc1C1CCN(C2CCC(NC(=O)/C=C/c3ccc(F)c(F)c3)CC2)CC1` (configuration not stated), with 6.02; and `O=C(Nc1cccc(C(F)(F)F)c1)c1cccc(S(=O)(=O)NC2CCN(CC3CCCCC3)C2)c1` (configuration not stated), with 6.23.
With `COc1ccc(CC2(c3ccc(F)cc3)N=C(N)N(CCCc3ccccc3)C2=O)cc1` (configuration not stated), the pIC50 was 6.21. This pIC50 and that of the compound before are within 0.2 log units of each other.
For `CCCCCN1CCCC(NS(=O)(=O)c2ccc(C(=O)Nc3ccc(C(F)(F)F)cc3)cc2)C1` (configuration not stated) the value was 5.79.
Take `CC(Cc1ccc(OCCCCOc2ccccc2)cc1)NCCCN1CCOCC1` (configuration not stated): the pIC50 was 6.14.
Then `Cc1ccccc1NC1=NC(=S)N(c2cccc(C(F)(F)F)c2)C12CCC(C(C)(C)C)CC2` (configuration not stated), with 6.01.
For `Cc1nc(-c2nc(NCCc3cnccn3)ncc2-c2ccsc2)sc1C` the value was 6.06.
Then `CS(=O)(=O)Nc1cccc(-c2cnc3[nH]cc(-c4ccc(CCC(=O)O)cc4)c3c2)c1`, with 5.97; and `CO/C(=C\C=C\c1cc2cc(Cl)c(Cl)cc2[nH]1)C(=O)NCCCNCCN(C)c1ccccc1`, with 6.11.
As for `COc1cc(OC)nc(-c2cccc(NC(=O)c3ccc4c(=O)n(CCN5CCCCC5)cnc4c3)c2)n1`, the pIC50 is 6.13. This pIC50 and that of the compound before are within 0.2 log units of each other.
For `O=C(/C=C/c1ccc(Cl)c(Cl)c1)NCCCCCN1CCC(NC(=S)Nc2cccc(Cl)c2)CC1` the value was 6.06; for `Cc1cc(C)cc(OCC(O)CN(Cc2cc(Cl)cc(Cl)c2)C(=O)Nc2ccccc2Cl)c1` (configuration not stated), 6.03.
`O=C(Nc1ccc2ccccc2n1)c1ccccc1-c1ccccc1`: the pIC50 was 6.36.
Then `O=C(Nc1ccc(F)cc1)NC1CCN(c2ccnc3cc(Cl)ccc23)C1` (configuration not stated), with 6.66; and `Cn1cncc1CNCc1ccc(-c2cccc(-c3nc4ccccc4[nH]3)c2)cc1`, with 6.64; and `O=C(Nc1cccc(C(F)(F)F)c1)N1CCOC(CCN2CCC3(CCc4ccccc43)CC2)(c2ccc(Cl)c(Cl)c2)C1` (configuration not stated), with 6.13.
For `Cc1cccc2[nH]c(-c3ccc(-c4cccc(NC(=O)Nc5ccsc5)c4)s3)nc12` the value was 6.27.
For `COc1ccc(Nc2ncc3c(-c4cccc(NC(=O)Cc5ccncc5)c4)c[nH]c3n2)cc1OC`, the pIC50 is 5.91.
Then `CO/C(=C\C=C\c1cc2cc(Cl)c(Cl)cc2[nH]1)C(=O)NCCCN1CCN(c2cccc(OCC(=O)Nc3cccc(C(=O)c4ccccc4)c3)c2)CC1`, with 6.16.
Then `O=C(/C=C/c1cccc2ccccc12)NC1CCC(CN2CCC(c3c[nH]c4ccccc34)CC2)CC1` (configuration not stated), with 6.13 and 6.17.
For `O=S(=O)(Nc1ccc2nccc(N3CCNCC3)c2c1)c1ccc(-c2ccccc2)cc1` the value was 6.01.
`CC(=NNC(=S)NC(c1ccccc1)c1ccccc1)c1ccccn1` showed a pIC50 of 6.05.
As to `COc1ccc(Cl)cc1C(=O)Nc1ccc(-c2nc3ccccc3[nH]2)cc1`, the pIC50 was 6.11. This pIC50 and that of the compound before are within 0.2 log units of each other.
Then `O=C(/C=C/c1ccc(Cl)c(Cl)c1)NCCCCCN1CCC(c2cn[nH]c2-c2ccccc2)CC1`, with 5.91; and `Cc1[nH]nc2cc(Nc3ccnc(Nc4cccc(CN5CCOCC5)c4)n3)ccc12`, with 5.80; and `O=C(Nc1cccc(C2=NCCN2)c1)Nc1cccc(C2=NCCN2)c1`, with 6.38.
In turn, `Cc1cccc(Nc2c(-c3cc(Br)ccc3O)nc3ncccn23)c1` gave a pIC50 of 6.68.
Then `Cc1ccc(C)c(N2CCN(Cc3ccccc3O)CC2)c1`, with 6.03; and `O=c1[nH]c2c(c(O)c1[N+](=O)[O-])CCC2`, with 5.98.
Then `CC(C)C[C@H](Nc1ccnc(NCC2CCCCC2)n1)C(=O)NCCOc1ccccc1`, with 5.99.
For `N=C(N)c1ccc(C(=O)Nc2cccc(C(=N)N)c2)cc1` the value was 5.98; for `COc1ccc2nccc([C@@H](O)CN3CCC(NCc4cc5cccc(OCc6ccccc6)c5[nH]4)CC3)c2c1`, 6.05.
`Oc1ccccc1CN1CCCC(COC(c2ccc(F)cc2)c2ccc(F)cc2)C1` (configuration not stated): the pIC50 is 6.11.
For `O=C(N[C@@H](Cc1ccccc1)[C@H](O)CNC1CCOCC1)c1cc(C2CCCC2)cc(N2CCCCS2(=O)=O)c1` the value was 6.70; for `Oc1cccc(Nc2ccnc3cc(-c4cc5ccccc5o4)ccc23)c1`, 6.12.
For `CC1CN(c2cc(=O)n(Cc3ccc(NC(=O)Nc4ccc(-c5ccccc5)cc4)cc3)cn2)CC(C)N1` (configuration not stated) the value was 6.01; for `Cc1c2ccncc2c(C)c2c1[nH]c1cc(Cc3ccccc3)c(O)cc12`, 6.82.
Then `N#Cc1cccc(C(=O)Nc2cccc(-c3ccc(C(=O)NCCCN4CCOCC4)cc3)c2)c1`, with 6.12; and `Cc1cc(N[C@@H](CC(C)C)C(=O)NC2CCCC2)nc(NCc2ccccc2C)n1`, with 5.87.
For the compound `Cc1ccc(NC(=O)c2ccnc(N3CCN(c4ccncc4)CC3)c2)cc1F`, the pIC50 is 6.06.
For `O=S(=O)(Nc1cccc(CCN2CCC(N3CCCCC3)CC2)c1)c1ccccc1C(F)(F)F` the value was 5.94.
For `CCC1(CC)CN(c2ccccc2)c2ccc(O)cc2S(=O)(=O)C1CC(C)C` (configuration not stated) the value was 6.40; for `COc1ccc(CN2CCN(CCOC(c3ccc(F)cc3)c3ccc(F)cc3)CC2)c(O)c1`, 6.14; for `O=c1ccc2ncc(Cl)c3c2n1CC3CN1CCC(NCc2cc3c(cn2)OCCO3)CC1` (configuration not stated), 6.02.
For `CCCN1CCN(CCCNC(=O)c2cc3c(-c4ccc(Cl)cc4)nn(C)c3s2)CC1`, the pIC50 is 5.96.
Then `CCCCCCCCS(=O)(=O)NCCCC1CCN(CCCCCNC(=O)C=Cc2ccc(Cl)c(Cl)c2)CC1`, with 6.07; and `COc1cc(NC(=O)Nc2cc(C)nc3ccccc23)cc(OC)c1`, with 6.40; and `Cc1cc(-c2ccnc(Nc3cccc(C#N)c3)n2)cc(C)c1O`, with 6.04.
Then `O=C(CN1CCCC1)Nc1cccc(C(=O)Nc2cccc(C(F)(F)F)c2)c1`, with 6.29; and `NCC1CCCN1Cc1cccc(-c2ccc(-c3nc4ccccc4[nH]3)s2)c1` (configuration not stated), with 5.98.
As to `Nc1nc(N)c2c(ccc3c2ccn3Cc2ccccn2)n1`, the pIC50 was 8.00.
Then `CN(C)c1ccc(CN2CCC(NC(=O)c3ccc(-c4cccc(Cl)c4)s3)CC2)cc1`, with 6.04; and `CC(Cc1ccc(C2=CCNCC2)cc1)NCC(O)c1cccc(C(F)(F)F)c1` (configuration not stated), with 5.80; and `COc1ccc(C=NNc2nc(-c3ccccc3)cc(=O)[nH]2)cc1OC`, with 6.23.
For `COc1ccc(NC(=O)CSc2nc(-c3ccccc3Cl)ns2)cc1` the value was 5.98.
`N#Cc1ccc2c(c1)CN(CCC1CCC(NC(=O)c3cc4cc(OC(F)(F)F)ccc4[nH]3)CC1)CC2` (configuration not stated): the pIC50 is 6.11. The pIC50 values of the last two compounds are within 0.2 log units of each other.
Regarding `Fc1cccc(COc2ccc(Nc3ncnc4sc(C#CCNC5CCCC5)cc34)cc2Cl)c1`, the pIC50 is 6.11.
Then `CCN1CCN(Cc2ccc3nc(-c4cc(C)n(Cc5cc(Cl)ccc5OCc5ccccc5)n4)[nH]c3c2)CC1`, with 6.11; and `Cn1c2c(c3ccccc31)CN(CCC1(c3ccc(Cl)c(Cl)c3)CN(C(=O)c3ccccc3)CCO1)CC2` (configuration not stated), with 6.51; and `O=C(NC1CCN(CCC[C@]2(c3ccc(Cl)c(Cl)c3)CCCN(C(=O)c3ccccc3)C2)CC1)c1ccc(Cl)cc1`, with 6.05.
For `Cc1ccc(Nc2nc(-c3ccccn3)cs2)nc1` the value was 6.12; for `Cn1cnc(CCNC(=O)c2ccc(-c3cccc(-c4nc5ccc(F)cc5[nH]4)c3)cc2)c1`, 6.17; for `COc1ccccc1CCNc1nc(C)cc(N[C@@H](CC(C)C)C(=O)NCCc2ccccc2)n1`, 6.14.
Then `Cc1nc(N)nc(N)c1-c1cc(Cl)c(Cl)c(Cl)c1`, with 6.08; and `Cc1cc(C(=O)N(Cc2ccc(-c3ccc(CNCCc4ccc(S(C)(=O)=O)cc4)cn3)cc2)C(C)CN(C)C)ccc1[N+](=O)[O-]` (configuration not stated), with 6.10; and `Cc1ccc(CNC(=O)[C@H](CC(C)C)Nc2cc(C)nc(NCC3CCCCC3)n2)cc1`, with 6.03.
For `O=C(N[C@H]1CCN(Cc2ccc(OCCN3CCNCC3)c3ccccc23)C1)c1ccc(Cl)c(Cl)c1`, the pIC50 was 6.12.
Then `COc1ccc2nccc([C@@H](O)CN3CCC(NC(=O)c4cccc(C(=O)c5ccccc5)c4)CC3)c2c1`, with 6.16; and `CCN(CC)CCN(Cc1ccc(-c2ccc(C(F)(F)F)cc2)cc1)C(=O)Cn1c(CCc2ccccc2F)nc(=O)c2ccccc21`, with 6.03; and `COc1ccc2nc(C)cc(N/N=C/C=C/c3ccccc3)c2c1`, with 6.15.
Then `COc1cccc(CN2CCN(C(c3ccccc3)c3ccccc3)CC2)c1O`, with 6.11.
For `COc1ccc(Cn2c(Nc3cccc(C(F)(F)F)c3)nc3cc(C(=O)NCCCN(C)C)ccc32)cc1Cl` the value was 6.04; for `O=C(/C=C/c1ccc(Cl)c(Cl)c1)N1CCC(CCN2CCC(c3nc4ccc(O)cc4[nH]3)CC2)CC1`, 6.47.
As for `CCn1cc(-c2nc(-c3cc(OC)cc(OC)c3)no2)c(=O)c2ccccc21`, the pIC50 is 6.47.
Then `CN(C)CCC1CCCc2ccc(NC(=O)Nc3cccc(Cl)c3Cl)cc21` (configuration not stated), with 6.02.

A word on the pIC50: it is −log10 of the IC50, conventionally taken in molar units. Read a high pIC50 as a low IC50.
